Laboratory results from the supplement of paper PMC10307832.

Key:
Assay in all cases: relative viability (nuclei count vs DMSO), 5 days (fraction); higher = more cells survive
RU-SKI 43 + Luminespib = compound: CC[C@@H](C)CNCC(=O)N1CCC2=C([C@@H]1COC3=CC=CC(=C3)C)C=CS2 [RU-SKI 43] + CCNC(=O)c1noc(-c2cc(C(C)C)c(O)cc2O)c1-c1ccc(CN2CCOCC2)cc1 [Luminespib] (partner 0.01 µM)
How it was run: (§1)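 Values are medians from duplicate plates. Each reflects relative viability, defined as the nuclei count of treated wells over that of vehicle wells. Lung cancer cell lines in 1536-well plates were pin-tool dosed one day after seeding with one drug alone or with a fixed anchor-drug dose plus five library-drug doses (not always all listed) in √10 steps, then fixed, stained and imaged at 4× after 5 days.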

Irinotecan + Decitabine = compound: CCc1c2c(nc3ccc(OC(=O)N4CCC(N5CCCCC5)CC4)cc13)-c1cc3c(c(=O)n1C2)COC(=O)[C@]3(O)CC [Irinotecan] + Nc1ncn([C@H]2C[C@H](O)[C@@H](CO)O2)c(=O)n1 [Decitabine] (partner 2 µM)
How it was run: as §1

Irinotecan + Vorinostat = compound: CCc1c2c(nc3ccc(OC(=O)N4CCC(N5CCCCC5)CC4)cc13)-c1cc3c(c(=O)n1C2)COC(=O)[C@]3(O)CC [Irinotecan] + O=C(CCCCCCC(=O)Nc1ccccc1)NO [Vorinostat] (partner 1 µM)
How it was run: as §1

MK-8033 + Bortezomib = compound: Cn1cc(-c2cnc3ccc4ccc(CS(=O)(=O)NCc5ccccn5)cc4c(=O)c3c2)cn1 [MK-8033] + CC(C)C[C@H](NC(=O)[C@H](Cc1ccccc1)NC(=O)c1cnccn1)B(O)O [Bortezomib] (partner 0.002 µM)
How it was run: as §1

| Cell Line | relative viability (RU-SKI 43 + Luminespib; first compound 0.1 µM) | relative viability (RU-SKI 43 + Luminespib; first compound 0.3162 µM) | relative viability (RU-SKI 43 + Luminespib; first compound 1 µM) | relative viability (RU-SKI 43 + Luminespib; first compound 3.162 µM) | relative viability (RU-SKI 43 + Luminespib; first compound 10 µM) | relative viability (Irinotecan + Decitabine; first compound 0.6325 µM) | relative viability (Irinotecan + Decitabine; first compound 2 µM) | relative viability (Irinotecan + Decitabine; first compound 6.325 µM) | relative viability (Irinotecan + Decitabine; first compound 20 µM) | relative viability (Irinotecan + Vorinostat; first compound 0.6325 µM) | relative viability (Irinotecan + Vorinostat; first compound 2 µM) | relative viability (Irinotecan + Vorinostat; first compound 6.325 µM) | relative viability (Irinotecan + Vorinostat; first compound 20 µM) | relative viability (MK-8033 + Bortezomib; first compound 0.02 µM) | relative viability (MK-8033 + Bortezomib; first compound 0.06325 µM) | relative viability (MK-8033 + Bortezomib; first compound 0.2 µM) | relative viability (MK-8033 + Bortezomib; first compound 0.6325 µM) | relative viability (MK-8033 + Bortezomib; first compound 2 µM) |
| --- | --- | --- | --- | --- | --- | --- | --- | --- | --- | --- | --- | --- | --- | --- | --- | --- | --- | --- |
| 201T | 1.06 | 1.06 | 1.04 | 1.06 | 1.03 | 0.714 | 0.615 | 0.295 | 0.298 | 0.325 | 0.81 | 0.426 | 0.28 | 1.13 | 1.09 | 1.08 | 1.07 | 1.12 |
| A549 |  |  |  |  |  |  | 0.26 | 0.197 | 0.0737 |  |  |  |  |  |  |  |  |  |
| A-427 | 0.851 | 1.2 | 1 | 0.668 | 0.789 | 0.566 | 0.573 | 0.347 | 0.198 | 0.738 | 0.785 | 0.384 | 0.33 | 0.98 | 1.11 | 1.02 | 0.968 | 0.954 |
| ABC-1 | 0.68 | 0.434 | 0.485 | 0.673 | 0.811 |  | 0.851 | 0.515 | 0.475 |  | 0.566 | 0.405 | 0.348 | 0.307 | 0.263 | 0.319 | 0.337 | 0.313 |
| BEN | 0.423 | 0.277 | 0.525 | 0.218 | 0.421 | 0.503 | 0.793 | 0.493 | 0.504 | 0.544 | 0.726 | 0.473 | 0.545 | 0.937 | 0.751 | 0.578 | 0.631 | 0.807 |
| CAL-12T | 0.207 | 0.364 | 0.179 | 0.19 | 0.363 |  |  |  |  | 0.733 | 0.592 | 0.403 | 0.259 | 0.935 | 0.946 | 0.876 | 1.16 | 1.01 |
| COR-L23 | 0.547 | 0.573 | 0.93 | 0.869 | 0.614 | 0.314 | 0.336 | 0.192 | 0.104 | 0.169 | 0.184 | 0.199 | 0.0826 | 0.966 | 0.797 | 0.868 | 0.971 | 1.02 |
| COR-L 105 | 0.871 | 0.837 | 0.643 | 0.772 | 0.686 | 0.605 | 0.586 | 0.555 | 0.364 | 0.856 | 0.643 | 0.621 | 0.334 | 0.852 | 0.735 | 0.79 | 0.945 | 0.93 |
| Calu-6 |  |  |  |  |  |  |  |  |  |  |  |  |  | 0.959 | 1.03 | 1.04 | 0.955 | 1.01 |
| ChaGo-K-1 | 0.661 | 0.566 | 0.723 | 0.645 | 0.516 | 0.344 | 0.251 | 0.233 | 0.239 | 0.443 | 0.326 | 0.268 | 0.243 | 1.37 | 0.756 | 0.98 | 1.02 | 0.926 |
| EBC-1 |  |  |  |  |  |  |  |  |  |  |  |  |  | 0.532 | 0.489 | 0.597 | 0.563 | 0.309 |
| EKVX | 0.939 | 0.809 | 0.758 | 0.932 | 0.833 |  | 0.27 | 0.262 | 0.229 |  | 0.52 | 0.43 | 0.398 | 1 | 0.995 | 0.968 | 0.712 | 1.03 |
| EMC-BAC-2 | 1.18 | 1.26 | 1.32 | 1.16 | 1.19 | 0.933 | 0.719 | 0.432 | 0.277 | 0.224 | 0.297 | 0.283 | 0.225 | 1 | 0.947 | 0.979 | 1.06 | 1.06 |
| EPLC-272H | 0.467 | 0.182 | 0.73 | 0.423 | 0.278 |  | 0.33 | 0.223 | 0.151 | 0.428 | 0.389 | 0.357 | 0.254 | 0.932 |  | 0.826 | 1.09 | 0.91 |
| H3255 | 0.928 | 0.951 | 1.23 | 0.76 | 0.849 |  | 0.456 | 0.266 | 0.225 |  | 0.782 | 0.343 | 0.311 | 0.846 | 0.585 | 0.822 | 0.825 | 0.705 |
| HARA | 0.687 | 0.765 | 0.918 | 0.974 | 0.672 | 0.481 | 0.318 | 0.284 | 0.283 |  | 0.146 | 0.122 | 0.135 | 1.07 | 1.1 | 1.13 | 1.17 | 1.07 |
| HCC-15 | 0.427 | 0.249 | 0.478 | 0.285 | 0.419 | 0.363 | 0.45 | 0.381 | 0.14 | 0.452 | 0.333 | 0.252 | 0.197 | 1.04 | 1.01 | 0.99 | 1.05 | 0.952 |
| HCC-44 | 1.02 |  | 1.16 | 1.02 | 0.894 | 0.87 | 0.913 | 0.677 | 0.512 | 0.998 | 0.839 | 0.451 | 0.461 | 0.9 | 0.838 | 0.803 | 0.907 | 0.833 |
| HCC-78 |  |  |  |  |  | 0.607 | 0.479 | 0.335 | 0.328 | 0.56 | 0.322 | 0.291 | 0.288 | 0.446 | 0.38 | 0.47 | 0.478 | 0.557 |
| HCC-366 |  |  |  |  |  | 0.341 | 0.212 | 0.104 | 0.0739 | 0.145 | 0.137 | 0.0609 | 0.069 | 1.07 | 1 | 0.96 | 1.18 | 1.05 |
| HCC-827 | 0.77 | 0.795 | 0.588 | 0.612 | 0.679 | 0.337 | 0.326 | 0.174 | 0.221 | 0.721 | 0.766 | 0.281 | 0.236 | 1.06 | 1.01 | 1.05 | 1.08 | 1.04 |
